Measurements as given in patent US11976083B2, “Inhibitors of peptidylarginine deiminases” (Gilead Sciences, Inc., priority 2020, dated 2024).

Molecular target: T1, human PAD4 (Homo sapiens, UniProt Q9UM07)
T1 construct: human PAD4 (NM_012387), A2-P663, was PCR amplified; His-SUMO (N, cleaved yes); made in house; host or cells: E. coli BL21(DE3)
Experiment: In vitro PAD4 BAEE biochemical assay
Conditions: BAEE substrate 3 mM, 5 nM PAD4, 2 mM calcium chloride; geometric mean of multiple experiments
Procedure, shortened: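 Assay was run at 25 °C using 3 mM BAEE and 5 nM human PAD4 after a 30 min compound preincubation; ammonia produced over 2 h was quantified by OPA-derived fluorescence. Full inhibition was defined by 50 µM BB-Cl-Amidine, and IC50 came from variable-slope nonlinear regression.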

T1 sequence (Q9UM07 2-663): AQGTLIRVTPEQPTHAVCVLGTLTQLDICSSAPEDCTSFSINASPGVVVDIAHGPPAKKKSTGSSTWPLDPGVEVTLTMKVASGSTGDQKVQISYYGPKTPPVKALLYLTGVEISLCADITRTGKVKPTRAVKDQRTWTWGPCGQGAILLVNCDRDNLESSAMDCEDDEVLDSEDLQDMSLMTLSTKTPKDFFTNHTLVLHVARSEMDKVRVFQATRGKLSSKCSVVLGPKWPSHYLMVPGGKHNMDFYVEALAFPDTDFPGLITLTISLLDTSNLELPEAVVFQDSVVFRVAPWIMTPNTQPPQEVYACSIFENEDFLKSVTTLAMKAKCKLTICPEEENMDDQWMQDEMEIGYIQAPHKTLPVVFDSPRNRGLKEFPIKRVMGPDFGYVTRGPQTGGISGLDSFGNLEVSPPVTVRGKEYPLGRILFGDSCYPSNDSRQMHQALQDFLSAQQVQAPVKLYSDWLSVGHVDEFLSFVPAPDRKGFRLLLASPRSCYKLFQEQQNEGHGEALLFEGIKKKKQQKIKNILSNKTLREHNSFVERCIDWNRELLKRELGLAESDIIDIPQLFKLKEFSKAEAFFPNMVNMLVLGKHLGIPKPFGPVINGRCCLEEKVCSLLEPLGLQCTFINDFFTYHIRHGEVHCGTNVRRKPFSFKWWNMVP

Row | IC50 | SMILES
1 | 0.07 µM | COc1cc(C(=O)N2CC[C@@H](OC)[C@@H](N)C2)cc2nc(-c3cc4ccc5nc4n3CCCCCc3nc(Cl)ccc3C(=O)N[C@@H]5C)n(C)c12 [Example 407, (2~{R})-17-[5-[(3~{S},4~{R})-3-amino-4-methoxy-piperidine-1-carbonyl]-7-methoxy-1-methyl-benzimidazol-2-yl]-8-chloro-2-methyl-3,9,16,22-tetrazatetracyclo[14.5.2.0^{5,10).0^{19,23}] tricosa-1(22),5(10),6,8,17,19(23),20-heptaen-4-one]
2 | 0.122 µM | CO[C@@H]1CCN(C(=O)c2cc(F)c3c(c2)nc(-c2cc4ccc5nc4n2CCCCCC[C@](F)(c2cccc(Cl)n2)C(=O)N[C@@H]5C)n3C2CC2)C[C@@H]1N [Example 876, (8~{S},11~{R})-17-[5-[(3~{S}, 4~{R})-3-amino-4-methoxy-piperidine-1-carbonyl]-1-cyclopropyl-7-fluoro-benzimidazol-2-yl]-8-(6-chloro-2-pyridyl)-8-fluoro-11-methyl-1,10,19-triazatricyclo [10.5.2.0^{15,18}]nonadeca-12(19),13,15(18), 16-tetraen-9-one]
3 | 1.16 µM | COc1cc(C(=O)N2CC[C@@H](CO)[C@H](N)C2)cc2nc(-c3cc4ccc5nc4n3CCCCCCC(C)(C)C(=O)N[C@@H]5C)n(C)c12 [Example 66, (11˜{R})-17-[5-[(3˜{S},4˜{R})-3-amino-4-(hydroxymethyl)piperidine-1-carbonyl]-7-methoxy-1-methyl-benzimidazol-2-yl]-8,8,11-trimethyl-1,10,19-triazatricyclo[10.5.2.0^{15,18}]nonadeca-12(19),13,15(18),16-tetraen-9-one]
4 | 0.065 µM | COc1cc(C(=O)N2CCC[C@@H](N)C2)cc2nc(-c3cc4ccc5nc4n3C[C@H]3C[C@@H]3COC(C)CC(=O)N[C@@H]5C)n(C)c12 (stereo partly drawn) [Example 271, (3~{S},5~{S},12~{R})-18-[5-[(3~{R})-3-aminopiperidine-1-carbonyl]-7-methoxy-1-methyl-benzimidazol-2-yl]-8,12-dimethyl-7-oxa-1,11,20-triazatetracyclo[11.5.2.0^{3,5}.0^{16,19}] icosa-13(20),14,16(19),17-tetraen-10-one]
5 | 4.44 µM | COc1cc(C(=O)N2CC[C@@H]3CCCN[C@@H]3C2)cc2nc(-c3cc4ccc5nc4n3CCCCCCC(C)(C)C(=O)N[C@@H]5C)n(C)c12 (single isomer, unassigned) [Example 262, (11˜{R})-17-[5-[(4˜{a}˜{S},8˜{a}˜{S})-2,3,4,4˜{a},5,6,8,8˜{a}-octahydro-1˜{H}-1,7-naphthyridine-7-carbonyl]-7-methoxy-1-methyl-benzimidazol-2-yl]-8,8,11-trimethyl-1,10,19-triazatricyclo[10.5.2.0^{15,18}]nonadeca-12(19),13,15(18),16-tetraen-9-one]
6 | 0.115 µM | CCO[C@@H]1CCN(C(=O)c2cc(OC)c3c(c2)nc(-c2cc4ccc5nc4n2CCCCCCC(C)(C)C(=O)N[C@@H]5C)n3C)C[C@@H]1N [Example 104, (11~{R})-17-[5-[(3~{S},4~{R})-3-amino-4-ethoxy-piperidine-1-carbonyl]-7-methoxy-1-methyl-benzimidazol-2-yl]-8,8,11-trimethyl-1,10,19-triazatricyclo[10.5.2.0^{15,18}]nonadeca-12(19),13,15(18),16-tetraen-9-one]
7 | 0.255 µM | COc1cc(C(=O)N2CCC[C@@H](N)[C@H]2CO)cc2nc(-c3cc4ccc5nc4n3CCCCC[C@@H]3C[C@H]3C(=O)N[C@@H]5C)n(C)c12 [Example 408, (2~{R},5~{R},7~{R})-14-[5-[(2~{S},3~{R})-3-amino-2-(hydroxymethyl)piperidine-1-carbonyl]-7-methoxy-1-methyl-benzimidazol-2-yl]-2-methyl-3,13,19-triazatetracyclo[11.5.2.0^{5,7}.0^{16,20}] icosa-1(19),14,16(20),17-tetraen-4-one]
8 | 0.161 µM | CO[C@@H]1CCN(C(=O)c2cc(F)c3c(c2)nc(-c2cc4ccc5nc4n2CCCCCc2nccnc2C(=O)N[C@@H]5C)n3C)C[C@@H]1N [Example 513, (2~{R})-17-[5-[(3~ {S},4~{R})-3-amino-4-methoxy-piperidine-1-carbonyl]-7-fluoro-1-methyl-benzimidazol-2-yl]-2-methyl-3,6,9,16,22-pentazatetracyclo[14.5.2.0^ {5,10}.0^{19,23}] tricosa-1(22),5(10),6,8,17,19 (23),20-heptaen-4-one]

Further lines, the compound ahead of its results:

Row | SMILES | IC50
9 | COc1cc(C(=O)N2CC[C@@H](OC)[C@@H](N)C2)cc2nc(-c3cc4ccc5nc4n3CCCCC[C@@H]3C[C@@]3(F)C(=O)N[C@@H]5C)n(C)c12 [Example 695, (2~{R},5~{S},7~{R})-14-[5-[(3~{S},4~{R})-3-amino-4-methoxy-piperidine-1-carbonyl]-7-methoxy-1-methyl-benzimidazol-2-yl]-5-fluoro-2-methyl-3,13,19-triazatetracyclo[11.5.2.0^ {5,7}.0^{16,20}]icosa-1(19), 14,16(20),17-tetraen-4-one] | 0.057 µM
10 | COc1cc(C(=O)N2C[C@H](N)[C@@H]3CC[C@H]2C3)cc2nc(-c3cc4ccc5nc4n3CCCCC[C@@]3(F)C[C@]3(C)C(=O)N[C@@H]5C)n(C)c12 [Example 915, (2~{R},5~{R},7~{R})-14-[5-[(1~{S},4~{R},5~{R})-4-amino-2-azabicyclo[3.2.1]octane-2-carbonyl]-7-methoxy-1-methyl-benzimidazol-2-yl]-7-fluoro-2,5-dimethyl-3,13,19-triazatetracyclo[11.5.2.0^ {5,7}.0^{16,20}]icosa-1(19),14,16(20),17-tetraen-4-one] | 0.047 µM
11 | COc1cc(C(=O)N[C@H]2CNC[C@H](O)C2)cc2nc(-c3cc4ccc5nc4n3CCCCCCC(C)(C)C(=O)N[C@@H]5C)n(C)c12 [Example 530, ~{N}-[(3~{R},5~ {R})-5-hydroxy-3-piperidyl]-7-methoxy-1-methyl-2-[(11~{R})-8,8,11-trimethyl-9-oxo-1,10,19-triazatricyclo [10.5.2.0^{15,18}]nonadeca-12(19),13,15(18),16-tetraen-17-yl]benzimidazole-5-carboxamide] | 0.051 µM
12 | COc1cc(C(=O)N2C[C@H](N)[C@@H]3CC[C@H]2C3)cc2nc(-c3cc4ccc5nc4n3CC(F)(F)CCCOC(C)(C)C(=O)N[C@@H]5C)n(C)c12 [Example 460, (11~{R})-17-[5-[(1~{S},4~{R},5~{R})-4-amino-2-azabicyclo[3.2.1]octane-2-carbonyl]-7-methoxy-1-methyl-benzimidazol-2-yl]-3,3-difluoro-8,8,11-trimethyl-7-oxa-1,10,19-triazatricyclo[10.5.2.0^{15,18}]nonadeca-12(19),13,15(18),16-tetraen-9-one] | 0.071 µM
13 | COc1cc(C(=O)N2CCC[C@@H](N)C2)cc2nc(-c3cc4ccc5cc4n3CCCCCOC(C)(C)C(=O)N[C@@H]5C)n(C)c12 [Example 156, (11~{R})-17-[5-[(3~{R})-3-aminopiperidine-1-carbonyl]-7-methoxy-1-methyl-benzimidazol-2-yl]-8,8,11-trimethyl-7-oxa-1,10-diazatricyclo[10.5.2.0^{15,18}]nonadeca-12(19),13,15(18),16-tetraen-9-one] | 0.056 µM
14 | C[C@H]1NC(=O)c2ccc(Cl)nc2CCCCCn2c(-c3nc4cc(C(=O)N5C[C@H](N)CC[C@@H]5C)cc(F)c4n3C3CC3)cc3ccc1nc32 [Example 807, (2~{R})-17-[5-[(2~{S},5~{R})-5-amino-2-methyl-piperidine-1-carbonyl]-1-cyclopropyl-7-fluoro-benzimidazol-2-yl]-8-chloro-2-methyl-3,9,16,22-tetrazatetracyclo[14.5.2.0^ {5,10}.0^{19,23}]tricosa-1(21),5(10),6,8,17,19,22-heptaen-4-one] | 0.031 µM
15 | COc1cc(C(=O)N2[C@H]3CC[C@@H]2[C@H](N)C3)cc2nc(-c3cc4ccc5nc4n3CCCCCCCC(=O)N[C@H]5C(F)(F)F)n(C)c12 [Example 257, (11~{R})-17-[5-[(1~{R},2~{R},4~{S})-2-amino-7-azabicyclo[2.2.1]heptane-7-carbonyl]-7-methoxy-1-methyl-benzimidazol-2-yl]-11-(trifluoromethyl)-1,10,19-triazatricyclo[10.5.2.0^{15,18}]nonadeca-12(19),13,15(18),16-tetraen-9-one] | 2.47 µM
16 | COc1cc(C(=O)N2C[C@H]3CC[C@@H]2[C@@H]3N)cc2nc(-c3cc4ccc5nc4n3CCCCCc3cncc(F)c3C(=O)N[C@@H]5C)n(C)c12 [Example 658, (2~{R})-17-[5-[(1~{R},4~ {R},7~{R})-7-amino-2-azabicyclo[2.2.1]heptane-2-carbonyl]-7-methoxy-1-methyl-benzimidazol-2-yl]-6-fluoro-2-methyl-3,8,16,22-tetrazatetracyclo[14.5.2.0^ {5,10).0^{19,23}] tricosa-1(22),5,7,9,17,19(23), 20-heptaen-4-one] | 0.025 µM
17 | CCCO[C@@H]1CCN(C(=O)c2cc(OC)c3c(c2)nc(-c2cc4ccc5nc4n2CCCCCCC(C)(C)C(=O)N[C@@H]5C)n3C)C[C@@H]1N [Example 103, (11~{R})-17-[5-[(3~{S},4~{R})-3-amino-4-propoxy-piperidine-1-carbonyl]-7-methoxy-1-methyl-benzimidazol-2-yl]-8,8,11-trimethyl-1,10,19-triazatricyclo[10.5.2.0^{15,18}]nonadeca-12(19),13,15(18),16-tetraen-9-one] | 0.166 µM
18 | C[C@H]1NC(=O)c2cnc(C(F)(F)F)cc2CCCCCn2c(-c3nc4cc(C(=O)N5C[C@H](N)[C@@H]6CC[C@H]5C6)cc(F)c4n3C3CC3)cc3ccc1nc32 [Example 844, (2~{R})-17-[5-[(1~{S},4~ {R},5~{R})-4-amino-2-azabicyclo [3.2.1]octane-2-carbonyl]-1-cyclopropyl-7-fluoro-benzimidazol-2-yl]-2-methyl-8-(trifluoromethyl)-3,7,16,22-tetrazatetracyclo[14.5.2.0^ {5,10).0^{19,23}]tricosa-1(22),5(10),6,8,17,19(23),20-heptaen-4-one] | 0.035 µM
